In paper PMC10515640, “Structure-Based Optimization of Covalent, Small-Molecule Stabilizers of the 14-3-3σ/ERα Protein–Protein Interaction from Nonselective Fragments” (Journal of the American Chemical Society, 2023):
Like-named read-outs stand apart in the source and are kept apart here.

Experiments:
[1] = target: T1, 14-3-3σ/ERα (Homo sapiens, UniProt P03372+P31947); test: Mass spectrometry dose response, compound binding to 14-3-3σ in the presence of ERα phosphopeptide; conditions: 100 nM compound, 100 nM 14-3-3σ, ERα-peptide 2 µM
T1 construct: The 14-3-3 σ isoform (full-length for mass spectrometry and fluorescence anisotropy assays, ΔC for crystallography); made in house; host or cells: E. coli Rosetta 2(DE3)pLysS, pPROEX HTb vector
How it was run: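 Covalent labeling of Cys38 on 14-3-3σ was tracked by LC-MS on a Waters Acquity UPLC/Xevo G2-XS Q-Tof, with samples desalted on a Protein BEH-C4 column. Full-length wild type 14-3-3σ (100 nM) plus ERα phosphopeptide was mixed with compound in 10 mM TRIS, pH 8.0, at 50 μl per well. Percent bound was measured at several time points.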

[2] = target: T2, 14-3-3σ/C-RAF (Homo sapiens, UniProt P31947); test: Fluorescence anisotropy compound titration, FAM-labeled C-RAF peptide; assay type: binding; conditions: 10 nM C-RAF-FAM labeled peptide, 5 µM 14-3-3σ, overnight incubation; read-out: EC50 value C-RAF (FA compound titration)
T2 construct: The 14-3-3 σ isoform (full-length for mass spectrometry and fluorescence anisotropy assays, ΔC for crystallography); made in house; host or cells: E. coli Rosetta 2(DE3)pLysS, pPROEX HTb vector
T2 sequence (P31947 1-248): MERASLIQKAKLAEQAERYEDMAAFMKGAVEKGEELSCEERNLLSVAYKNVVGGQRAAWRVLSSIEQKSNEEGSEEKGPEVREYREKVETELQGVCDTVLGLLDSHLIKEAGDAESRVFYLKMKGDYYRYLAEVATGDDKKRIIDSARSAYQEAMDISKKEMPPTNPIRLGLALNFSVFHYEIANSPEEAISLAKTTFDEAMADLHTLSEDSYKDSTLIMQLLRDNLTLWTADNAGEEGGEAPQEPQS
How it was run: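 Peptide-binding stabilization was followed by fluorescence anisotropy. A mix of 5 µM 14-3-3σ and 10 nM FAM-labeled C-RAF peptide received 2-fold serial dilutions of compound starting at 500 or 1000 µM. The buffer was 10 mM HEPES pH 7.5, 150 mM NaCl, 0.1% Tween20 and 1 mg/mL BSA. Anisotropy was read after incubating overnight at room temperature. A four-parameter logistic fit in GraphPad Prism 7 gave EC50 values averaged from three experiments.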

[3] = target: T2, 14-3-3σ/C-RAF; test: Mass spectrometry dose response, compound binding to 14-3-3σ in the presence of C-RAF phosphopeptide; conditions: 100 nM compound, 100 nM 14-3-3σ, C-RAF peptide 18 µM
How it was run: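 Compound stocks of 50 mM in DMSO were serially diluted 3-fold to give 19-point dose responses topping out at 1 mM, then 1000 nl was transferred into 50 μl wells holding 100 nM full-length wild type 14-3-3σ plus C-RAF phosphopeptide. Mass spectrometry measured percent compound bound to Cys38, with curves fitted in GraphPad Prism using a four-parameter variable-slope model.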

[4] = target: T2, 14-3-3σ/C-RAF; test: Fluorescence anisotropy compound titration, FAM-labeled C-RAF peptide; assay type: binding; conditions: MS and FA assays; abstract: up to 150 μM compound
[5] = target: T1, 14-3-3σ/ERα; test: Fluorescence anisotropy protein titration, FAM-labeled ERα peptide; assay type: binding; conditions: 10 nM FAM-ERα peptide
Experimental: To evaluate compound-mediated stabilization of the 14-3-3σ/ERα complex directly, FA protein titrations were performed at a saturating concentration of compound. FA protein titrations allowed the quantification of the cooperative effect by comparing the apparent dissociation constants (appKD) of the binary and ternary complexes. 14-3-3σ was titrated into 10 nM FAM-labeled ERα peptide in the presence of DMSO or 100 μM of the compounds (Table S4). […]
diluted in buffer (10 mM HEPES, pH 7.5, 150 mM NaCl, 0.1% Tween20, 1 mg/mL Bovine Serum Albumin (BSA; Sigma-Aldrich). Final DMSO in the assay was always 1%. […]
Protein titrations were made by titrating 14-3-3σ in a 2-fold dilution series (starting at 300 µM) to a mix of fluorescein-labeled peptide (10 nM) and DMSO or compound (100 µM). Fluorescence anisotropy measurements were performed after overnight incubation at room temperature. […]
Wells containing only FAM-peptide were used to set as G-factor at 35 mP. Data reported are at endpoint. EC50 and apparent Kd values were obtained from fitting the data with a four-parameter logistic model (4PL) in GraphPad Prism 7 for Windows. Data was obtained and averaged based on either three (compound titrations) or two (protein titrations) independent experiments.

[6] = target: T3, 14-3-3σ (Homo sapiens, UniProt P31947); test: Mass spectrometry dose response, compound binding to 14-3-3σ in the absence of peptide (apo); conditions: 100 nM compound, 100 nM 14-3-3σ
T3 construct: The 14-3-3 σ isoform (full-length for mass spectrometry and fluorescence anisotropy assays, ΔC for crystallography); made in house; host or cells: E. coli Rosetta 2(DE3)pLysS, pPROEX HTb vector
T3 sequence (P31947 1-248): T2 sequence (P31947 1-248)
How it was run: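 This apo mass spectrometry assay tracked adduct formation between compounds and the native cysteine of 14-3-3σ in the absence of any peptide. Wells held 100 nM protein in 10 mM TRIS pH 8.0 with a 3-fold compound dilution series, final volume 50 μl. Injections of 6 μl were taken at 1h, 8h, 16h and 24h, and dose responses were fitted with a four-parameter variable-slope model in GraphPad Prism.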

[7] = target: T1, 14-3-3σ/ERα; test: Fluorescence anisotropy compound titration, FAM-labeled ERα peptide; assay type: binding; conditions: 10 nM ERα-FAM labeled peptide, 1 µM 14-3-3σ, overnight incubation (24 h)
How it was run: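 Compounds, serially diluted 2-fold from a top concentration of 500 or 1000 µM, were added to 10 nM FAM-labeled ERα peptide plus 1 µM 14-3-3σ in 10 mM HEPES pH 7.5, 150 mM NaCl, 0.1% Tween20, 1 mg/mL BSA (1% DMSO). Anisotropy was measured after overnight room-temperature incubation, and EC50 values were derived by four-parameter logistic fitting averaged over three independent experiments.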

[8] = target: T1, 14-3-3σ/ERα; test: as above; conditions: labeling in MS assay, peptide binding in FA assay
[9] = read-out: EC50 value ERα (FA compound titration)

EC50 [2] [µM]	stabilization of 14-3-3σ/C-RAF (in words) [4]	X Fold stabilization (100 µM compound) of 14-3-3σ/ERα ([5]; versus DMSO reference) [fold]	Kd ([5]; 100 µM compound, overnight incubation) [µM]	EC50 [7, 9] [µM]	SMILES	Percentage (%) bound of compound to 14-3-3σ, ERα 1h [1] [%]	Percentage (%) bound of compound to 14-3-3σ, ERα 8h [1] [%]	Percentage (%) bound of compound to 14-3-3σ, ERα 16h [1] [%]	Percentage (%) bound of compound to 14-3-3σ, ERα 24h [1] [%]	Percentage (%) bound of compound to 14-3-3σ, CRAF 1h [3] [%]	Percentage (%) bound of compound to 14-3-3σ, CRAF 8h [3] [%]	Percentage (%) bound of compound to 14-3-3σ, CRAF 24h ([3]; 24h) [%]	Percentage (%) bound of compound to 14-3-3σ, CRAF 24h ([3]; head prints 24h) [%]	Percentage (%) bound of compound to 14-3-3σ, APO 1h [6] [%]	Percentage (%) bound of compound to 14-3-3σ, APO 8h [6] [%]	Percentage (%) bound of compound to 14-3-3σ, APO 16h [6] [%]	Percentage (%) bound of compound to 14-3-3σ, APO 24h [6] [%]	EC50 ([7]; EC50 value ERα (FA compound titration)) [µM]	activity in MS and FA assays (in words) [8]
> 150	no stabilization	30	0.049	2 ± 0.3	O=C(CCl)NCC1CCN(C(=O)C2(Nc3ccc(Cl)cc3)CCNCC2)CC1 [compound 131]	54.4	82.2	94.0	98.3	2.0	2.4	12.5	4.6	1.4	2.2	5.8	14.1	–	–
> 150	no stabilization	–	–	8 ± 1	NC1CCC(Nc2ccc(Cl)cc2)(C(=O)N2CCC(CNC(=O)CCl)CC2)CC1 (stereo not drawn) [compound 137]	36.3	60.4	90.0	96.4	1.7	3.6	10.4	6.6	1.4	1.9	3.2	9.3	–	–
–	–	–	–	–	C=CS(=O)(=O)NCC1CCN(C(=O)C2(Nc3ccc(Cl)cc3)CCOCC2)CC1 [compound 155]	0.6	1.5	5.9	14.1	0	0	1.0	0	0	0.7	4.6	31.4	> 150	inactive

SMILES	EC50 [2] [µM]	stabilization of 14-3-3σ/C-RAF (in words) [4]	X Fold stabilization (100 µM compound) of 14-3-3σ/ERα ([5]; versus DMSO reference) [fold]	Kd ([5]; 100 µM compound, overnight incubation) [µM]	EC50 [7, 9] [µM]	Percentage (%) bound of compound to 14-3-3σ, ERα 1h [1] [%]	Percentage (%) bound of compound to 14-3-3σ, ERα 8h [1] [%]	Percentage (%) bound of compound to 14-3-3σ, ERα 16h [1] [%]	Percentage (%) bound of compound to 14-3-3σ, ERα 24h [1] [%]	Percentage (%) bound of compound to 14-3-3σ, CRAF 1h [3] [%]	Percentage (%) bound of compound to 14-3-3σ, CRAF 8h [3] [%]	Percentage (%) bound of compound to 14-3-3σ, CRAF 24h ([3]; 24h) [%]	Percentage (%) bound of compound to 14-3-3σ, CRAF 24h ([3]; head prints 24h) [%]	Percentage (%) bound of compound to 14-3-3σ, APO 1h [6] [%]	Percentage (%) bound of compound to 14-3-3σ, APO 8h [6] [%]	Percentage (%) bound of compound to 14-3-3σ, APO 16h [6] [%]	Percentage (%) bound of compound to 14-3-3σ, APO 24h [6] [%]	EC50 ([7]; EC50 value ERα (FA compound titration)) [µM]	activity in MS and FA assays (in words) [8]
CC(C)(Nc1ccccc1)C(=O)N1CCC(CNC(=O)CCl)CC1 [compound 85]	–	–	–	–	> 150	0.9	1.2	1.5	1.5	0.9	1.2	1.5	1.5	0	0	0	0	–	inactive
